# Measurements from article PMC9413201, “Covalent Proteomimetic Inhibitor of the Bacterial FtsQB Divisome Complex” (Journal of the American Chemical Society, 2022).
# Numbered stars: 1 amine (or outer) side, 2 acyl side, 3 side chain; on linkers, the order of the positions; unused ones are H or OH. Bridge positions count the residues as written; N and C are the ends. Square brackets hold non-standard residues; d marks the D form. Peptide text beside a SMILES is read from it. * marks the point of attachment. X1 = O=C([C@H](CCCCCC=[*:3])N[*:1])[*:2]; Nle = CCCC[C@H](N)C(=O)O; BrAc = O=C(CBr)*
# Key:
# [1] = tested on: E. coli lptD4213 (imp); test: Growth assay (OD600) with outer membrane-permeable E. coli lptD4213 (imp); format: cell-based
# Procedure: Growth assays were performed to assess the in vitro cytotoxicity of peptides. The experiments were executed under sterile conditions. For each assay, 20 mL of fresh MOPS medium was prepared (Teknova Inc MOPS EZ Rich Defined Medium Kit | M2105: 40 mM MOPS, 4 mM Tricine, 0.01 mM FeSO4, 9.5 mM NH4Cl, 0.276 mM […]
# MOPS medium with Streptomycin (30 μg/mL) and incubated overnight at 200 rpm and 37°C. The next day, the […]
# peptide stocks in DMSO were diluted to four times the desired highest concentration to be measured in MOPS medium. The peptide dilutions were vortexed and briefly centrifuged. 50 μL of MOPS medium was added to each well of a Corning® 96-well Clear Flat Bottom Polystyrene TC-treated Microplate. A twofold dilution series was performed by adding 50 μL of the diluted peptide to the top row, mixing it and taking 50 μL to the next row. At each step the solution was resuspended five times. This was repeated until the last row which was skipped in order to obtain a reference measurement. After 2-3 h, the E.coli lptD4213 (imp) pre-culture was diluted to an OD600 of 0.00005. Then, 50 μL of diluted culture were added to each well and the plate sealed using a lid and parafilm. The OD600 was measured every 15 min over a period of more than 20 h (continuously shaking, 37°C) using a BioTek Synergy H1 plate reader. The obtained data were analyzed and relative growth curves plotted with GraphPad Prism 8. The assays were performed as technical triplicates. A single overnight pre-culture was used to prepare the diluted MOPS culture used in the growth assay. […]
# [2] = tested on: E. coli lptD4213 (imp) cells; test: Microscopy and morphology assay (cell length); format: cell-based; conditions: 17fα 100 μM
# Procedure: 1.8 Microscopy and morphology assay
# Morphology assays were executed to assess the physiological change of E.coli cells upon exposure to different peptides. All steps in this protocol were performed under sterile conditions. For each assay, 20 mL of fresh MOPS medium was prepared (40 mM MOPS, 4 mM tricine, 0.01 mM FeSO-4, 9.5 mM NH4Cl, 0.276 mM K2SO4, 0.5 […]
# The next day, the overnight culture […]
# was diluted to an OD600 of 0.1. […]
# min, after which the supernatant was discarded.
# The frozen samples were thawed and 3 μL of […]
# morphology of the cells was investigated. […]
# accessed on February 2020).
# The FtsQ(50˗276) stock solution was diluted to
# NH4HCO3 (pH 7.6), 150 mM NaCl).
# The gel was placed in the container
# Colloidal Coomassie staining solution […]
# was washed 3x for 30 min with water.
# The gel pieces were washed with 200 μL water by vortex mixing for 30 s. Then the water was discarded. The gel pieces were then washed with […]
# discarded and the procedure repeated once.
# The supernatants were discarded and 200 μL of 100 %
# ACN added, mixed and incubated for 30 s. […] They were then
# [3] = target: FtsQ(50–276) (Escherichia coli, UniProt P06136); test: LC/MS analysis of modified FtsQ(50–276); format: biochemical, E. coli; set-up: pET16b FtsQ(50˗276), a His6 fusion; made in house; host or cells: Escherichia coli BL21 DE3; conditions: HPLC/MS, deconvolution; expected for reaction with 1 equiv ΔMW = 2122 g/mol; 37 °C, NH4HCO3 buffer pH 7.6
# Procedure: 1.6 LC/MS-analysis of modified FtsQ(50˗276)
# To determine the reactivity of 17fα, FtsQ(50˗276) was diluted to a concentration of 100 μM in 20 mM NH4HCO3 buffer (pH 7.6, 150 mM NaCl). The peptide 17fα was diluted to a concentration of 250 μM in the same buffer.
# Equal volumes of both solutions were mixed and incubated at 37 °C for the given time period (1 h or 3 h). The reaction was quenched by 4-fold dilution in ACN/H2O (1:1) + 0.1 % TFA.
# 20 μL of the resulting solution were injected and analysed by analytical reverse-phase HPLC (1260 Infinity II, Agilent Technology; flow rate of 0.3 mL·min-1, A: water with 0.1% FA, B: 80% iPrOH, 10% ACN, 10% H2O with 0.1% FA; AdvanceBio RP-mAB C4 column, 2.1×50 mm, 3.5 µm particle size) using a 10 min gradient (20-80% B) coupled to a mass spectrometer (Infinity Lab LC/MSD XT, Agilent Technology) using API-ES (MSD signal settings: Polarity: Positive; scan mass range: 500-3000; Fragmentor 70). Analytical HPLC chromatograms at 210 nm and MS spectra, masses and m/z ratios are shown in the appendix – analytics part. […]
# Morphology assays were executed to assess the physiological change of E.coli cells upon exposure to different peptides. All steps in this protocol were performed under sterile conditions. For each assay, 20 mL of fresh MOPS medium was prepared (40 mM MOPS, 4 mM tricine, 0.01 mM FeSO-4, 9.5 mM NH4Cl, 0.276 mM K2SO4, 0.5
# Sequence of FtsQ(50–276) (P06136 50-276): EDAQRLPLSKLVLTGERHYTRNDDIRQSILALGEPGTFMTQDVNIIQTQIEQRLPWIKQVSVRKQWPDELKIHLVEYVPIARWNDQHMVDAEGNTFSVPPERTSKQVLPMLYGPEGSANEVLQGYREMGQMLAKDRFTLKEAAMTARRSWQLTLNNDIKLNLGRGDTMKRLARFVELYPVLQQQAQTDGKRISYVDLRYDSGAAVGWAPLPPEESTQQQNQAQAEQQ
structure (smiles),measurement,setting,value
CCCC[C@@H]1NC(=O)[C@H](CO)NC(=O)[C@H](CC(C)C)NC(=O)[C@H](CCC(=O)O)NC(=O)[C@H](CC(N)=O)NC(=O)[C@@H](NC(=O)[C@H](C)NC(C)=O)CCCCCC=CCCCCC[C@@H](C(=O)N[C@@H](CCCCNC(=O)CBr)C(=O)N[C@@H](Cc2ccccc2)C(=O)N[C@@H](Cc2ccc(O)cc2)C(=O)N[C@@H](CCCNC(=N)N)C(=O)N[C@@H](CC(C)C)C(N)=O)NC(=O)CNC(=O)[C@@H]2CCCN2C(=O)[C@H](CCCNC(=N)N)NC(=O)[C@H]([C@@H](C)O)NC1=O [17fα] (Ac-A[X1]NELS[Nle]TRPG[X1]K(BrAc)FYRL-NH2; staple 2-12),lowest concentration with inhibitory effect on growth,"[1]; concentration-dependent effect on growth after 15 h, highest tested concentration 100 μM, n = 3 replicates",12.5 µM
same,effect on bacterial growth (OD600),"[1]; inhibitor c = 50 μM, OD600 every 15 min over 22 h, n = 3 technical replicates",prevents bacterial growth
same,cell length median (1h),[2]; 1 h,4.7 μm
same,cell length mean (1h),"[2]; 1 h, phase contrast microscopy, ImageJ/ObjectJ",5.3 μm
same,cell length mean (6h),[2]; 6 h,12.4 μm
same,cell length median (6h),[2]; 6 h,11.3 μm
same,ΔMW of FtsQ(50–276) after treatment (obtained mass difference),[3],2124 g/mol
